Biological target: T1, MAGL (Homo sapiens, UniProt Q99685)
T1 sequence (Q99685 1-303): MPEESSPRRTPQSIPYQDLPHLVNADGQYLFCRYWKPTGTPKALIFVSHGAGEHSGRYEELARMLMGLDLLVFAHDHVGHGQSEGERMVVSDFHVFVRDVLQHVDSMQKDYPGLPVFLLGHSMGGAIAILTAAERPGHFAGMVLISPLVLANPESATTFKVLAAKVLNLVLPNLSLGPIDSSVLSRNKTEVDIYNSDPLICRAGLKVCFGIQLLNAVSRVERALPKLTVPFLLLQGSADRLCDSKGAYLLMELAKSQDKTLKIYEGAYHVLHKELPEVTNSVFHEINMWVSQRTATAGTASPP
Assay: 2-AG assay (MAGL inhibitory activity, hydrolysis of 2-arachidonoylglycerol to arachidonic acid followed by mass spectrometry)
Type: biochemical
Conditions: 8 μM 2-arachidonoylglycerol, 15 min pre-incubation, 30 min incubation at RT, RapidFire MS readout
Summary of the method: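 Human MAGL ([…] final) pre-incubated 15 min at RT with compound in 50 mM TRIS, 1 mM EDTA, 0.01% Tween-20, 2.5% DMSO; 8 μM 2-AG then added for 30 min at RT. Acetonitrile quench with d8-arachidonic acid; arachidonic acid measured by RapidFire SPE–MS/MS, activity from arachidonic acid/d8 ratio.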

In order of rising IC50:
1. O=C(N1CC2(CC(Oc3ccc(F)cc3Cl)C2)C1)N1CC2(CC(n3cnc(C4CC4)n3)C2)C1 [Example 45, [6-(2-chloro-4-fluoro-phenoxy)-2-azaspiro[3.3]heptan-2-yl]-[6-(3-cyclopropyl-1,2,4-triazol-1-yl)-2-azaspiro[3.3]heptan-2-yl]methanone]  0.2 nM
2. COC(=O)C(C)(C)Cc1cccc(OC2CN(C(=O)N3CC4(CC(n5cnc(C6CC6)n5)C4)C3)C2)c1 [Example 194, methyl 3-[3-[1-[6-(3-cyclopropyl-1,2,4-triazol-1-yl)-2-azaspiro[3.3]heptane-2-carbonyl]azetidin-3-yl]oxyphenyl]-2,2-dimethyl-propanoate]  0.3 nM
3. O=C(N1CC(c2ccc(C3CCC3)cc2)C1)N1CC2(CC(n3cnc(C4CC4)n3)C2)C1 [Example 507, [3-(4-cyclobutylphenyl)azetidin-1-yl]-[6-(3-cyclopropyl-1,2,4-triazol-1-yl)-2-azaspiro[3.3]heptan-2-yl]methanone]  0.51 nM
4. O=C(N1CC(c2ccc(N3CC[C@H](C(F)(F)F)C3)nc2)C1)N1CC2(CC(n3cnc(C(F)(F)F)n3)C2)C1 [Example 426, [3-[6-[(3S)-3-(trifluoromethyl)pyrrolidin-1-yl]-3-pyridyl]azetidin-1-yl]-[6-[3-(trifluoromethyl)-1,2,4-triazol-1-yl]-2-azaspiro[3.3]heptan-2-yl]methanone]  0.7 nM
5. N#Cc1cc(CC2CC3(C2)CN(C(=O)N2CC4(CC(n5cnc(C6(O)CC6)n5)C4)C2)C3)ccc1C(F)(F)F [Example 365, 5-[[2-[6-[3-(1-hydroxycyclopropyl)-1,2,4-triazol-1-yl]-2-azaspiro[3.3]heptane-2-carbonyl]-2-azaspiro[3.3]heptan-6-yl]methyl]-2-(trifluoromethyl) benzonitrile]  1.83 nM
6. O=C(N1CC2(CC(n3cnc(C4CC4)n3)C2)C1)N1CC2(C1)CN(S(=O)(=O)c1ccccc1C(F)(F)F)C2 [Example 223, [6-(3-cyclopropyl-1,2,4-triazol-1-yl)-2-azaspiro[3.3]heptan-2-yl]-[2-[2-(trifluoromethyl)phenyl]sulfonyl-2,6-diazaspiro[3.3]heptan-6-yl]methanone]  3 nM
7. CS(=O)(=O)c1ccc(CC2CC3(C2)CN(C(=O)N2CC4(CC(n5cnc(C6(O)CC6)n5)C4)C2)C3)cc1 [Example 491, [6-[3-(1-hydroxycyclopropyl)-1,2,4-triazol-1-yl]-2-azaspiro[3.3]heptan-2-yl]-[6-[(4-methylsulfonylphenyl)methyl]-2-azaspiro[3.3]heptan-2-yl]methanone]  6.78 nM
8. O=C(c1cnc(OCC2(C(F)(F)F)CC2)c(C2COC2)c1)N1CC2(CC(n3cnc(C4CC4)n3)C2)C1 [Example 154, [6-(3-cyclopropyl-1,2,4-triazol-1-yl)-2-azaspiro[3.3]heptan-2-yl]−[5-(oxetan-3-yl)-6-[[1-(trifluoromethyl)cyclopropyl]methoxy]-3-pyridyl]methanone]  10 nM
9. CP(C)(=O)c1ccc(CC2CC3(C2)CN(C(=O)N2CC4(CC(n5cnc(C(F)(F)F)n5)C4)C2)C3)cc1 [Example 375, [6-[(4-dimethyl-phosphorylphenyl)methyl]-2-azaspiro[3.3]heptan-2-yl]-[6-[3-(trifluoromethyl)-1,2,4-triazol-1-yl]-2-azaspiro[3.3]heptan-2-yl]methanone]  12.7 nM
10. CS(=O)(=O)c1cc(Cl)ccc1-c1ccc(C2CN(C(=O)N3CC4(C3)CN(c3cncc(F)c3)C4)C2)cc1 [Example 350, [3-[4-(4-chloro-2-methylsulfonyl-phenyl)phenyl]azetidin-1-yl]-[6-(5-fluoro-3-pyridyl)-2,6-diazaspiro[3.3]heptan-2-yl]methanone]  12.8 nM
11. O=C(N1CC2(CC(n3cnc(C4CC4)n3)C2)C1)N1CC2(C1)CN(S(=O)(=O)NCc1ccc(F)cc1)C2 [Example 256, 6-[6-(3-cyclopropyl-1,2,4-triazol-1-yl)-2-azaspiro[3.3]heptane-2-carbonyl]-N-[(4-fluorophenyl)methyl]-2,6-diazaspiro[3.3]heptane-2-sulfonamide]  17.3 nM
12. O=C(c1cnc(OCC2(C(F)(F)F)CC2)c(F)c1)N1CC2(CC(n3cnc(C4CC4)n3)C2)C1 [Example 26, [6-(3-cyclopropyl-1,2,4-triazol-1-yl)-2-azaspiro[3.3]heptan-2-yl]−[5-fluoro-6-[[1-(trifluoromethyl)cyclopropyl]methoxy]-3-pyridyl]methanone]  19.8 nM
13. O=C(N1CCC(CNS(=O)(=O)c2ccc(OC(F)(F)F)cc2)CC1)N1CC2(CC(n3cnc(C4CC4)n3)C2)C1 [Example 259, N-[[1-[6-(3-cyclopropyl-1,2,4-triazol-1-yl)-2-azaspiro[3.3]heptane-2-carbonyl]-4-piperidyl]methyl]-4-(trifluoromethoxy) benzenesulfonamide]  21.8 nM
14. O=C(N1CC2(CC(Cc3ccc(C(F)(F)F)nc3)C2)C1)N1CC2(CC(c3ccc(C(F)(F)F)nc3)C2)C1 [Example 524, [6-[6-(trifluoromethyl)-3-pyridyl]-2-azaspiro[3.3]heptan-2-yl]-[6-[[6-(trifluoromethyl)-3-pyridyl]methyl]-2-azaspiro[3.3]heptan-2-yl]methanone]  74.3 nM
15. NS(=O)(=O)c1ccc(C2CN(C(=O)N3CC4(CC(n5cnc(C6CC6)n5)C4)C3)C2)cc1 [Example 293, 4-[1-[6-(3-cyclopropyl-1,2,4-triazol-1-yl)-2-azaspiro[3.3]heptane-2-carbonyl]azetidin-3-yl]benzenesulfonamide]  78 nM
16. NC(=O)C(c1ccc(F)cc1)C1CCN(C(=O)N2CC3(CC(n4cnc(C5CC5)n4)C3)C2)CC1 (stereo not drawn) [Example 305, 2-[1-[6-(3-cyclopropyl-1,2,4-triazol-1-yl)-2-azaspiro[3.3]heptane-2-carbonyl]-4-piperidyl]-2-(4-fluorophenyl)acetamide]  117 nM
17. N#Cc1ccc(S(=O)(=O)N2CC3(CN(C(=O)N4CC5(CC(n6cnc(C7CC7)n6)C5)C4)C3)C2)cc1 [Example 308]  138 nM
18. O=C(N1CC(c2nnc(C3(C(F)(F)F)CC3)o2)C1)N1CC2(CC(n3cnc(C4CC4)n3)C2)C1 [Example 145, [6-(3-cyclopropyl-1,2,4-triazol-1-yl)-2-azaspiro[3.3]heptan-2-yl]-[3-[5-[1-(trifluoromethyl)cyclo-propyl]-1,3,4-oxadiazol-2-yl]azetidin-1-yl]methanone]  541 nM
19. CC(C)(C)c1nnc(-c2ccc(C(=O)N3CC4(CC(n5ccc(C6CC6)n5)C4)C3)cc2)o1 [Example 169, [4-(5-tert-butyl-1,3,4-oxadiazol-2-yl)phenyl]-[6-(3-cyclopropylpyrazol-1-yl)-2-azaspiro[3.3]heptan-2-yl]methanone]  659 nM
20. O=C(N1CC(c2nnc(CC3CC3)[nH]2)C1)N1CC2(CC(n3cnc(C4CC4)n3)C2)C1 [Example 333, [3-[5-(cyclopropylmethyl)-4H-1,2,4-triazol-3-yl]azetidin-1-yl]-[6-(3-cyclopropyl-1,2,4-triazol-1-yl)-2-azaspiro[3.3]heptan-2-yl]methanone]  949 nM
21. O=C(N1CCC(NS(=O)(=O)c2ccc(F)cc2)CC1)N1CC2(CC(n3cnc(C4CC4)n3)C2)C1 [Example 336, N-[1-[6-(3-cyclopropyl-1,2,4-triazol-1-yl)-2-azaspiro[3.3]heptane-2-carbonyl]-4-piperidyl]-4-fluoro-benzenesulfonamide]  1440 nM

Reference: patent publication US20240199587A1, “HETEROCYCLIC COMPOUNDS” (Hoffmann-La Roche Inc., priority 2021, published 2024)
